Tested on: zebrafish larvae
Assay: Ammonia excretion as an indicator of locomotor response to electrical stimulus
Type: in vivo, Danio rerio
Details: MS-222 0.10 mg/mL in media; 30 larvae (4 dpf) per well; stimuli 3 uA, 50 msec, 30 times per hour for 12 hours; colorimetric ammonia assay; FIG. 7
Description: To create the graphs in the subsequent Examples, the initial conditions consisted of harvesting fertilized zebrafish eggs and placing them into embryo media and housed in an incubator with a constant temperature of 28.5° C. for the first several days of development, and throughout the course of experimentation. Embryo media consists of ultrapure water with 5 mM NaCl, 0.17 mM KCl, 0.33 mM CaCl2, 0.3 mm MgSO4 added. Embryo media was be used to make all final dilutions of test agents.
After the first 24 hours of incubation, the zebrafish larvae were treated with pronase solution (2 mg/ml in Embryo Medium) for several minutes to remove the larvae from their chorion. […] The 96-well plates were maintained in incubators at 28.5° C. and were removed from incubators only for testing or to refresh media.
Excretion of ammonia is a necessary consequence of protein breakdown. When proteins are converted to carbohydrates to provide energy, the amino group is removed and must be dealt with. In animals, the amino group is quickly oxidized to form ammonia. […] The concentration of ammonia excreted by the larvae was quantified by taking a sample of the media following the Examples and assaying it with a commercially available colorimetric assay kit (Ammonia Assay Kit #A1000, Sigma Biochemical) […]

Compound: CCOC(=O)c1cccc(N)c1.CS(=O)(=O)O [MS-222]
- locomotor response of zebrafish to an electrical stimulus, based on excretion of ammonia: decreases the locomotor response
